The record followed here is patent publication US20160220567A1, “COMPOSITION FOR TREATING OR PREVENTING BONE DISEASES, COMPRISING HALOFUGINONE AS ACTIVE INGREDIENT” (THE CATHOLIC UNIVERSITY OF KOREA INDUSTRY-ACADEMIC …, priority 2013, published 2016).

One assay relates to Rcan3 and Sox6. As to the kind of experiment: Expression of Rcan3 and Sox6 in joint tissue of CII-immunized DBA/1J mice by immunohistochemical staining. It counts as in vivo, mouse. To be noted: 500 μg/kg intraperitoneally, 50 days, vs untreated group, FIG. 7. An excerpt:
Furthermore, to examine whether the halofuginone compound of the present invention can promote the differentiation and the activity of osteoblasts, the present inventors performed the following experiment for the purpose of confirming the effect of the halofuginone compound on the expression and the activity of Rcan3 and Sox6, which are factors associated with the differentiation of osteoblasts. Specifically, the DBA/1J mice were subjected to the primary immunization by intradermally injecting bovine type II collagen (hereinafter, “CII”) in an amount of 100 μL, and one week thereafter, injected intraperitoneally with halofuginone (500 μg/kg). Fifty days thereafter, the mice were sacrificed, and the expression levels of Rcan3 and Sox6 in the joint tissue of the mice were confirmed via immunohistochemical staining method. The group of mice not treated with halofuginone was used as the control group.
The immunohistochemical staining method was performed as follows. The joints of the mice group used above were collected, fixed with 10% neutral buffered formalin, the bones were decalcified with Calci-Clear Rapid bone decalcifier and embedded in paraffin, the joint tissue was prepared into 7 μm-thick slices and attached to slides. […]

Assay [1] concerns mouse model with collagen-induced arthritis. The assay can be described thus: Arthritis index score in mouse model with collagen-induced arthritis (CIA). The assay is classed as in vivo. The procedure: (§1) For the construction of a mouse model with collagen-induced arthritis (hereinafter, referred to as “CIA”), a 6-week old male DBA/1J mouse was subjected to primary immunization by intradermal injection after mixing the bovine type II collagen (hereinafter, referred to as “CII”) and complete Freud's adjuvant (CFA) in an amount of 100 μL, respectively. After a week thereafter, halofuginone was injected intraperitoneally at 3 day intervals at a concentration of 100 μg/kg and 500 μg/kg, respectively (9 weeks).
To examine the therapeutic effect of treating halofuginone of the present invention on arthritis, the clinical score of the joint inflammation of the mouse prepared in Example <1-1> (the mouse with arthritis injected with halofuginone) was measured while observing the mouse. The group treated with a solution in which DMSO was diluted in saline was used as the control group.
The clinical score was evaluated using a clinical score system, in which the respective score for swelling and redness on toes or caudal regions was determined by observing daily the degree of the progress of the joint inflammation on the arthritis lesion of the mouse by the naked eye.

The test system of assay [2] is mononuclear cells of human peripheral blood. The assay can be described thus: Differentiation of osteoclasts in mononuclear cells of human peripheral blood: TRAP staining and real-time PCR. The assay is classed as cell-based. The settings on record: M-CSF, RANKL, 9 days. How it is done:
The mononuclear cells of human peripheral blood were cultured for 9 days after stimulating with M-CSF, RANKL, and halofuginone. Then, the cells were stained by TRAP according to the manufacturer's manual, and the amount of mRNA of TRAP, NFATc1, calcitonin receptor (CTR), cathepsin K, MMP9, and RANK were confirmed by real-time PCR.

Assay [3] deals with joint tissue of mouse with arthritis. The assay can be described thus: Degree of joint destruction by immunohistochemical staining of CIA mouse joints. The assay is classed as in vivo. The settings on record: CIA mice, according to the concentration of treatment, FIG. 1B. The procedure:
as §1
To examine the therapeutic effect of treating halofuginone of the present invention on arthritis, the mouse prepared in Example <1-1> (the mouse with arthritis injected with halofuginone) was sacrificed and the degree of joint destruction was analyzed via immunohistochemical staining method. The group treated with a solution in which DMSO was diluted in saline was used as the control group.
The immunohistochemical staining method was performed by the process shown below. The joints of the mice group used above were collected, fixed with 10% neutral buffered formalin, the bones were decalcified with EDTA and embedded in paraffin, the joint tissue was prepared into 7 μm-thick slices and attached to slides. […] The immunohistochemical staining method was used in the joints of mice and analyzed under an optical microscope. […]

In assay [4] the test system is CD4 T cells isolated from human peripheral blood. As to the kind of experiment: Expression of IL-17 and Foxp3 by flow cytometer in human T cells. The assay is classed as cell-based. The settings on record: condition of differentiating Th17 cells, flow cytometry, FIG. 6A. The procedure: The CD4 T cells isolated from human peripheral blood were treated with halofuginone under the condition of differentiating Th17 cells (anti-CD3 (0.5 μg/mL), anti-CD28 (0.5 μg/mL), anti-IFN-γ (10 μg/mL), anti-IL-4 (10 μg/mL), IL-6 (20 ng/mL), and IL-1β (10 ng/mL)) and cultured. Then, the cells were collected, washed with the FACs buffer for flow cytometry analysis, subjected to blocking at 4° C. for the inhibition of non-specific binding for 15 minutes, added with CD4 and CD25 (i.e., cell surface markers) along with anti-CD4-PerCP and anti-CD25-APC and reacted at 4° C. for 30 minutes, and washed with a perm wash buffer. After performing the Cytofix/cytoperm process at 4° C. for 20 minutes, the resultant was washed with the perm wash buffer. Anti Foxp3-FITC and anti IL-17 PE were added thereto, reacted at 4° C. for 30 minutes, and washed with the perm wash buffer. Upon completion of staining, the cells were analyzed using the fluorescentactivated cell sorter (FACs) regarding the expression levels of IL-17 cytokines and Foxp3 according to the halofuginone treatment.
On the technique in general: Flow cytometry measures light scatter and fluorescence of single cells or particles in a stream.

Where [5] appears, read: dose-dependent, FIGS. 6B and 6C.

`O=C(C[C@H]1NCCC[C@@H]1O)Cn1cnc2cc(Br)c(Cl)cc2c1=O` (racemic) [halofuginone]: in the assay with Rcan3 and Sox6, the “expression of Rcan3” value is “significant increase” and the “expression of Sox6” value is “significant increase”. For the same compound, the arthritis index score result in assay [1] (CIA DBA/1J mice, 100 and 500 μg/kg intraperitoneally at 3 day intervals, vs DMSO in saline control, FIG. 1A) was “decrease in the arthritis index score in a dose-dependent manner”. The “arthritis lesion by the naked eye” value in assay [1] (CIA mice, 500 μg/kg) was “no arthritis lesion at all”. In addition, the differentiation of osteoclasts entry in assay [2] is “effectively inhibit”. In addition, in assay [2] (setting [5]), the “mRNA expression of MMP9” value is “decreased”, the “mRNA expression of NFATc1” value is listed as “decreased”, the “mRNA expression of RANK” value is given as “decreased” and the “mRNA expression of TRAP” value was “decreased”. In assay [2] (setting [5]), the “mRNA expression of calcitonin receptor(CTR)” value was “decreased” and the “mRNA expression of cathepsin K” value is “decreased”. For the same compound, the joint destruction result in assay [3] is listed as “significantly decrease”. For the same compound, in assay [4], the “number of Th17 cells” value is “reduces” and the “number of Treg cells” value is “increasing”.
